Results reported in US9365588B2, “Benzoxazines as modulators of ion channels” (Vertex Pharmaceuticals Incorporated, priority 2011, dated 2016).

Biological target: human NaV 1.7 (Homo sapiens, UniProt Q15858)
Assay: E-VIPR optical membrane potential assay with electrical stimulation
Format: cell-based
Settings: sodium channel inhibition; read-out: Binned Activity Data (IC50)
Source text: Assays for Detecting and Measuring NaV Inhibition Properties of Compound E-VIPR Optical Membrane Potential Assay Method with Electrical Stimulation
Sodium channels are voltage-dependent proteins that can be activated by inducing membrane voltage changes by applying electric fields. The electrical stimulation instrument and methods of use are described in Ion Channel Assay Methods PCT/US01/21652, herein incorporated by reference and are referred to as E-VIPR. The instrument comprises a microtiter plate handler, an optical system for exciting the coumarin dye while simultaneously recording the coumarin and oxonol emissions, a waveform generator, a current- or voltage-controlled amplifier, and a device for inserting electrodes in well. Under integrated computer control, this instrument passes user-programmed electrical stimulus protocols to cells within the wells of the microtiter plate.
24 hours before the assay on E-VIPR, HEK cells expressing human NaV subtype, like NaV 1.7, are seeded in 384-well poly-lysine coated plates at 15,000-20,000 cells per well. Other subtypes are performed in an analogous mode in a cell line expressing the NaV of interest. HEK cells are grown in media (exact composition is specific to each cell type and NaV subtype) supplemented with 10% FBS (Fetal Bovine Serum, qualified; GibcoBRL #16140-071) and 1% Pen-Strep (Penicillin-Streptomycin; GibcoBRL #15140-122). Cells are grown in vented cap flasks, in 90% humidity and 10% CO2, to 100% confluence. They are usually split by trypsinization 1:10 or 1:20, depending on scheduling needs, and grown for 2-3 days before the next split.
Bath1 buffer. Glucose 10 mM (1.8 g/L), Magnesium Chloride (Anhydrous), 1 mM (0.095 g/L), Calcium Chloride, 2 mM (0.222 g/L), HEPES 10 mM (2.38 g/L), Potassium Chloride, 4.5 mM (0.335 g/L), Sodium Chloride 160 mM (9.35 g/L).
Hexyl Dye Solution: Bath1 Buffer+0.5% β-cyclodextrin (make this prior to use, Sigma #C4767), 8 μM CC2-DMPE+2.5 μM DiSBAC6(3). To make the solution Add volume of 10% Pluronic F127 stock equal to volumes of CC2-DMPE+DiSBAC6(3). The order of preparation is first mix Pluronic and CC2-DMPE, then add DiSBAC6(3) while vortexing, then add Bath1+β-Cyclodextrin.
1) Pre-spot compounds (in neat DMSO) into compound plates. Vehicle control (neat DMSO), the positive control (20 mM DMSO stock tetracaine, 125 μM final in assay) and test compounds are added to each well at 160× desired final concentration in neat DMSO. Final compound plate volume will be 80 μL (80-fold intermediate dilution from 1 μL DMSO spot; 160-fold final dilution after transfer to cell plate). Final DMSO concentration for all wells in assay is 0.625%.
2) Prepare Hexyl Dye Solution.
3) Prepare cell plates. On the day of the assay, medium is aspirated and cells are washed three times with 100 μL of Bath1 Solution, maintaining 25 μL residual volume in each well.
4) Dispense 25 μL per well of Hexyl Dye Solution into cell plates. Incubate for 20-35 minutes at room temp or ambient conditions.
5) Dispense 80 μL per well of Bath1 into compound plates. Acid Yellow-17 (1 mM) is added and Potassium Chloride can be altered from 4.5 to 20 mM depending on the NaV subtype and assay sensitivity.
6) Wash cell plates three times with 100 μL per well of Bath1, leaving 25 μL of residual volume. Then transfer 25 uL per well from Compound Plates to Cell Plates. Incubate for 20-35 minutes at room temp/ambient condition
7) Read Plate on E-VIPR. Use the current-controlled amplifier to deliver stimulation wave pulses for typically 9 seconds and a scan rate of 400 Hz. A pre-stimulus recording is performed for 0.5 seconds to obtain the un-stimulated intensities baseline. The stimulatory waveform is applied for 9 seconds followed by 0.5 seconds of post-stimulation recording to examine the relaxation to the resting state. […]

Sequence of human NaV 1.7 (Q15858 whole entry): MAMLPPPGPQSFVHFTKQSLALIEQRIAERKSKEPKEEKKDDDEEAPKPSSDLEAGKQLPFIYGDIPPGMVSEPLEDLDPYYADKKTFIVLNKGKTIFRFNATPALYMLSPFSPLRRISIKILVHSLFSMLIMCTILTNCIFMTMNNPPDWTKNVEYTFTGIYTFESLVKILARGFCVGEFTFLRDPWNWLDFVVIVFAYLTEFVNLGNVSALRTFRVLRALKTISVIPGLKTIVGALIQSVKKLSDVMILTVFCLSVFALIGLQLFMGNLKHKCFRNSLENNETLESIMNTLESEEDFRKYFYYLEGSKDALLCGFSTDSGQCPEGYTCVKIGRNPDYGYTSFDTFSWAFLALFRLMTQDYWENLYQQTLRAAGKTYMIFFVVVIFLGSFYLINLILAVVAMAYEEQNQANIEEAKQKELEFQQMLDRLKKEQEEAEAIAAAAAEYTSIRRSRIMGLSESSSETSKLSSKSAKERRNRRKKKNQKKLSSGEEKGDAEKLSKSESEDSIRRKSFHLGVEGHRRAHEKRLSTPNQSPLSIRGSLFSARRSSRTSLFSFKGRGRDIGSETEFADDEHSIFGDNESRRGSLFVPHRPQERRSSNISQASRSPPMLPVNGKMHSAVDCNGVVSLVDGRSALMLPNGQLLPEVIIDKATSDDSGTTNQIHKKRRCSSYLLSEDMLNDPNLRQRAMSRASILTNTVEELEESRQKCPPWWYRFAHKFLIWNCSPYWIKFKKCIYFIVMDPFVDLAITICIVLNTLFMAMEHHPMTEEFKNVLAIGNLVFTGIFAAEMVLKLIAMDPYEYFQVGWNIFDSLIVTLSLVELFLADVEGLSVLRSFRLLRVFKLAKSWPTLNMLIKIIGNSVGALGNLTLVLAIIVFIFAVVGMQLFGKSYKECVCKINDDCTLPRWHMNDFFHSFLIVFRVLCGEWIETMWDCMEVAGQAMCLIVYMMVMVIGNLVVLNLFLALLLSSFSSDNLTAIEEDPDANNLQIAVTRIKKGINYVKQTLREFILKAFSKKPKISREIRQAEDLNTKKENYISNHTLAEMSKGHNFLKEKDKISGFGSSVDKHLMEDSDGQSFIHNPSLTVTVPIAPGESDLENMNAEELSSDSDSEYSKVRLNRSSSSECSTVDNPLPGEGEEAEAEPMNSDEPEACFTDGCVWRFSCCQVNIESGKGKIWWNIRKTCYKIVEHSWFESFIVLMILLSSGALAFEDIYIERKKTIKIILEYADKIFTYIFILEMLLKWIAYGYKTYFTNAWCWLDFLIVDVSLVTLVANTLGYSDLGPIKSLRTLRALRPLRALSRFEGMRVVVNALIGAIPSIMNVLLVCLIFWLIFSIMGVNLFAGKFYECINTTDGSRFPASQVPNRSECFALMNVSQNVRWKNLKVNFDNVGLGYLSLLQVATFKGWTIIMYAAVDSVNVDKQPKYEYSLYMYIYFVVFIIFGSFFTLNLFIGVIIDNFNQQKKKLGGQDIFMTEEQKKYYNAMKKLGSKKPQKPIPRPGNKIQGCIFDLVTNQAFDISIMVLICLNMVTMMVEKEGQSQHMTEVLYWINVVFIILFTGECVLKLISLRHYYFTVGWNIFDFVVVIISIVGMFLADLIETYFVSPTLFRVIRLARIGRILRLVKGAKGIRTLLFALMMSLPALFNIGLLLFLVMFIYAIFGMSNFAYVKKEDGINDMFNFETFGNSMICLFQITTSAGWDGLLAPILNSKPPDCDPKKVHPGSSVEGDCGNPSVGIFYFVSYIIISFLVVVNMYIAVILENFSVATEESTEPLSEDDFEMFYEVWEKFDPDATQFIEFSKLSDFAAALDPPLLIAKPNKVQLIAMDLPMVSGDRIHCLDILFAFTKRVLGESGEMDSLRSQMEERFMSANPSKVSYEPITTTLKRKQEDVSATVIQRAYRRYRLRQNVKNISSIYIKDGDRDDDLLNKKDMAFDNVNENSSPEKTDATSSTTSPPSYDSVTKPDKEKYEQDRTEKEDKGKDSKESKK

Structure (SMILES) | IC50 [nM]
N#Cc1ccc2n1-c1ccccc1OC21CCN(C(=O)c2ccc(OC(F)F)cc2)CC1 [Compound 2] | > 5000
COc1c(CO)cccc1C(=O)N1CCC2(CC1)Oc1ccccc1-n1c(C#N)ccc12 [Compound 3] | ≤ 2000
CC(C)C(O)c1ccc(C(=O)N2CCC3(CC2)Oc2ccccc2-c2nn(C)cc23)cc1 (stereo not shown) [Compound 4] | ≤ 2000
Cc1cc(C(=O)N2CCC3(CC2)Oc2ccccc2-c2c3cnn2C)ccc1OC(C)C [Compound 5] | ≤ 2000
Cc1cc(C(=O)N2CCC3(CC2)Oc2cccc(C)c2-n2cccc23)ccc1OC(C)C [Compound 7] | ≤ 2000
Nc1nc2ccc(C(=O)N3CCC4(CC3)Oc3ccccc3-n3c(C(F)(F)F)ccc34)cc2s1 [Compound 8] | 2000 to 5000
O=C(c1ccc(C2(O)COC2)cc1)N1CCC2(CC1)Oc1ccccc1-n1c(C(F)(F)F)ccc12 [Compound 9] | ≤ 2000
CC(C)CS(=O)(=O)c1ccc(C(=O)N2CCC3(CC2)Oc2ccccc2-n2c(C(F)(F)F)ccc23)cc1 [Compound 11] | ≤ 2000
CC(C)(C(=O)O)S(=O)(=O)c1ccc(C(=O)N2CCC3(CC2)Oc2ccccc2-n2c(C(F)(F)F)ccc23)cc1 [Compound 12] | 2000 to 5000
CCOc1ccc(C(=O)N2CCC3(CC2)Oc2ccccc2-c2c3cnn2C)c(OCC)c1C [Compound 13] | ≤ 2000
COc1ccc2[nH]cc(C(=O)N3CCC4(CC3)Oc3ccccc3-c3c4cnn3C)c2c1 [Compound 14] | ≤ 2000
O=C(c1ccc2ncsc2c1)N1CCC2(CC1)Oc1ccccc1-n1c(C(F)(F)F)ccc12 [Compound 15] | > 5000
COc1ccc2c(c1)-c1c(cnn1C)C1(CCN(C(=O)c3ccccc3OC)CC1)O2 [Compound 16] | ≤ 2000
N#Cc1ccc2n1-c1ccccc1OC21CCN(C(=O)c2ccc(S(=O)(=O)NCCO)cc2)CC1 [Compound 17] | 2000 to 5000
O=C(c1ccccc1OC(F)F)N1CCC2(CC1)Oc1cc(Cl)ccc1-n1cccc12 [Compound 21] | ≤ 2000
Cc1cc(C)c(C(=O)N2CCC3(CC2)Oc2cc(Cl)ccc2-n2cccc23)c(=O)[nH]1 [Compound 22] | 2000 to 5000
COc1c(CO)cccc1C(=O)N1CCC2(CC1)Oc1ccccc1-n1c(C(F)(F)F)ccc12 [Compound 23] | ≤ 2000
COc1c(F)cccc1C(=O)N1CCC2(CC1)Oc1ccccc1-n1c(C#N)ccc12 [Compound 24] | ≤ 2000
Cn1ncc2c1-c1ccccc1OC21CCN(C(=O)c2ccc(OCCOC(F)(F)F)c(C#N)c2)CC1 [Compound 26] | ≤ 2000
Cc1ccc(C(=O)N2CCC3(CC2)Oc2ccccc2-n2cccc23)cc1Cl [Compound 27] | ≤ 2000

Structure (SMILES) | IC50 [nM]
Cn1ncc2c1-c1ccccc1OC21CCN(C(=O)c2ccc(OC(C)(C)C)cc2)CC1 [Compound 28] | 2000 to 5000
COc1cc(Cl)cc(C(=O)N2CCC3(CC2)Oc2cc(Cl)ccc2-n2cccc23)c1 [Compound 29] | ≤ 2000
COc1cc(C(=O)N2CCC3(CC2)Oc2cc(F)ccc2-n2cccc23)ccc1OC[C@@H](C)OC [Compound 30] | ≤ 2000
COC[C@@H](C)Oc1ccc(C(=O)N2CCC3(CC2)Oc2cc(Cl)ccc2-n2cccc23)cc1OC [Compound 31] | ≤ 2000
Cc1cc(C(=O)N2C3CCC2CC2(C3)Oc3ccccc3-n3cccc32)ccc1OC(C)C (stereo not shown) [Compound 32] | ≤ 2000
COc1cc(C(=O)N2CCC3(CC2)Oc2cc(F)ccc2-n2cccc23)ccc1O[C@@H]1CCC[C@H]1O [Compound 34] | ≤ 2000
CC(C)Oc1ccc(C(=O)N2CCC3(CC2)Oc2ccccc2-n2c(C(F)(F)F)ccc23)nc1 [Compound 36] | ≤ 2000
O=C(c1ccc(OC2COC2)c(C(F)(F)F)c1)N1CCC2(CC1)Oc1ccccc1-n1cccc12 [Compound 37] | ≤ 2000
Cc1cc(C(=O)N2CCC3(CC2)Oc2cc(F)ccc2-n2cccc23)ccc1OC(C)C [Compound 38] | ≤ 2000
CC(C)c1ccc(C(=O)N2CCC3(CC2)Oc2cc(Cl)ccc2-n2cccc23)c(=O)[nH]1 [Compound 39] | ≤ 2000
CC(C)Oc1ccc(C(=O)N2CCC3(CC2)Oc2ccccc2-c2c3cnn2C)c(C#N)c1 [Compound 40] | 2000 to 5000
COc1ccc(C(=O)N2CCC3(CC2)Oc2ccccc2-n2cccc23)cc1S(C)(=O)=O [Compound 41] | ≤ 2000
CC(C)Oc1ccc(C(=O)N2CCC3(CC2)Oc2ccccc2-n2c(C#N)ccc23)cc1F [Compound 42] | ≤ 2000
Cn1ncc2c1-c1ccccc1OC21CCN(C(=O)c2cccc3ncn(C)c23)CC1 [Compound 43] | 2000 to 5000
Cc1c(F)cccc1C(=O)N1CCC2(CC1)Oc1ccccc1-c1c2cnn1C [Compound 44] | ≤ 2000
COc1cc(C(=O)N2CCC3(CC2)Oc2cc(Cl)ccc2-n2cccc23)ccc1C1(OC)COC1 [Compound 45] | ≤ 2000
COc1cc(C(=O)N2CCC3(CC2)Oc2ccccc2-n2c([S+](C)[O-])ccc23)ccc1OC(C)(C)C (stereo not shown) [Compound 46] | > 5000
COc1cc(C(=O)N2CCC3(CC2)Oc2ccccc2-c2c3cnn2C)ccc1OCC(C)C [Compound 47] | ≤ 2000
COc1cc(C(=O)N2CCC3(CC2)Oc2ccccc2-n2cccc23)ccc1OC[C@H](C)OC [Compound 48] | ≤ 2000
CC(CO)NS(=O)(=O)c1ccc(C(=O)N2CCC3(CC2)Oc2ccccc2-n2c(C#N)ccc23)cc1 (stereo not shown) [Compound 49] | > 5000

Structure (SMILES) | IC50 [nM]
CC(C)C(O)c1ccc(C(=O)N2CCC3(CC2)Oc2ccccc2-n2c(C(F)(F)F)ccc23)cc1 (stereo not shown) [Compound 50] | ≤ 2000
CCn1ncc2c1-c1ccccc1OC21CCN(C(=O)c2ccc(OCCOC)c(OC)c2)CC1 [Compound 51] | ≤ 2000
Cc1cc(C(=O)N2CCC3(CC2)Oc2cc(F)ccc2-n2cccc23)ccc1C(C)(C)O [Compound 52] | ≤ 2000
Cc1cc(S(=O)(=O)C(C)C)ccc1C(=O)N1CCC2(CC1)Oc1ccccc1-c1c2cnn1C [Compound 53] | ≤ 2000
Cc1cc(C(=O)N2CCC3(CC2)Oc2ccccc2-n2c(C#N)ccc23)ccc1[C@](C)(O)CO [Compound 54] | ≤ 2000
CCc1ccc(C(=O)N2CCC3(CC2)Oc2cc(Cl)ccc2-n2cccc23)cc1C [Compound 55] | ≤ 2000
CC1Oc2c(C(=O)N3CCC4(CC3)Oc3ccccc3-c3c4cnn3C)cccc2C1C (stereo not shown) [Compound 56] | ≤ 2000
O=C(c1cc(Cl)cc(C(F)(F)F)c1)N1CCC2(CC1)Oc1cc(Cl)ccc1-n1cccc12 [Compound 57] | ≤ 2000
COc1cc(C(=O)N2CCC3(CC2)Oc2ccccc2-n2cccc23)ccc1C(C)(C)O [Compound 59] | ≤ 2000
COc1cc(F)cc(C(=O)N2CCC3(CC2)Oc2cc(Cl)ccc2-n2cccc23)c1 [Compound 60] | ≤ 2000
COCCOc1ccc(C(=O)N2CCC3(CC2)Oc2ccccc2-n2cccc23)cc1C#N [Compound 62] | ≤ 2000
COc1cc(C(=O)N2CCC3(CC2)Oc2cc(Cl)ccc2-n2cccc23)ccc1F [Compound 63] | ≤ 2000
CC(C)C(O)c1ccc(C(=O)N2CCC3(CC2)Oc2ccccc2-n2c(C#N)ccc23)cc1 (stereo not shown) [Compound 65] | ≤ 2000
CC(C)Oc1ccc(C(=O)N2CCC3(CC2)Oc2ccccc2-c2c3cnn2C)cc1CO [Compound 66] | ≤ 2000
Cc1cc(C(=O)N2CCC3(CC2)Oc2ccccc2-c2c3cnn2C)ccc1S(=O)(=O)C(C)(C)C [Compound 67] | ≤ 2000
CCCOc1ccc(C(=O)N2CCC3(CC2)Oc2ccccc2-n2cccc23)cc1C(F)(F)F [Compound 69] | ≤ 2000
CC(C)Oc1ccc(C(=O)N2CCC3(CC2)Oc2ccccc2-n2c3ccc2S(C)(=O)=O)c(F)c1 [Compound 70] | ≤ 2000
Cc1cc(C(=O)N2CCC3(CC2)Oc2cc(F)ccc2-n2cccc23)ccc1OCC1CCCO1 (stereo not shown) [Compound 74] | ≤ 2000
